From US20240251792A1, “WEED CONTROL METHOD” (SYNGENTA CROP PROTECTION AG, priority 2021, published 2024)
Read-outs that look alike come from different tables or passages of the source.

Tests used:
Assay type in all cases: in vivo
[1] = test system: SETFA; assay: Pre-emergence biological efficacy (Table 3); settings: Setaria faberi, 312 h, after 13 days, read-out: evaluation (100=total damage to plant; 0=no damage to plant)
Method in brief: (§1)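 Visual damage score (0 = no damage, 100 = total damage) read 13 days after spraying. Pots were sown one day earlier and held at 24/19 °C, 16 h light; the 50 g/l acetone/AMA formulation was diluted in 0.2% Genapol X080 to the final dose.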

[2] = test system: ZEAMX; assay: Pre-emergence biological efficacy (Table 3); settings: 312 h, after 13 days, read-out: evaluation (100=total damage to plant; 0=no damage to plant)
Method in brief: as §1

[3] = test system: ECHCG; assay: Pre-emergence biological efficacy (Table 3); settings: Echinochloa crus-galli, 312 h, after 13 days, read-out: evaluation (100=total damage to plant; 0=no damage to plant)
Method in brief: as §1

[4] = test system: AMAPA; assay: Pre-emergence biological efficacy (Table 3); settings: 312 h, after 13 days, read-out: evaluation (100=total damage to plant; 0=no damage to plant)
Method in brief: as §1

[5] = test system: IPOHE; assay: Pre-emergence biological efficacy (Table 3); settings: Ipomoea hederacea, 312 h, after 13 days, read-out: evaluation (100=total damage to plant; 0=no damage to plant)
Method in brief: as §1

[6] = test system: AMARE; assay: Pre-emergence biological efficacy (Table 3); settings: Amaranthus retroflexus, 312 h, after 13 days, read-out: evaluation (100=total damage to plant; 0=no damage to plant)
Method in brief: as §1

[7] = test system: weeds and/or crops; assay: Post-emergence biological efficacy (Table 4); settings: 312 h, evaluated after 13 days
Method in brief: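 Weeds and crops were grown 14 days in a glasshouse, then sprayed post-emergence with compound formulated in acetone/F50 and diluted in 0.2% Genapol X080 to the final dose. Damage was scored after 13 days on a 0–100 scale, where 100 is total damage.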

[8] = AMAPA, read-out: damage to plant AMAPA (100=total damage; 0=no damage)
[9] = ZEAMX, read-out: damage to plant ZEAMX (100=total damage; 0=no damage)
[10] = Amaranthus retroflexus, AMARE, read-out: damage to plant AMARE (100=total damage; 0=no damage)
[11] = Echinochloa crus-galli, ECHCG, read-out: damage to plant ECHCG (100=total damage; 0=no damage)
[12] = Ipomoea hederacea, IPOHE, read-out: damage to plant IPOHE (100=total damage; 0=no damage)
[13] = Setaria faberi, SETFA, read-out: damage to plant SETFA (100=total damage; 0=no damage)

Compound: N#Cc1c(F)ccc(C(F)(F)C(=O)O)c1Cl [Compound 1-460, 2-(2-Chloro-3-cyano-4-fluoro-phenyl)-2,2-difluoro-acetic acid]
- pest or weed control at 1000 g/ha [1]: 10%
- plant injury at 1000 g/ha [2]: 10%
- pest or weed control at 1000 g/ha [3]: 0%
- pest or weed control at 1000 g/ha [4]: 90%
- pest or weed control at 1000 g/ha [5]: 70%
- pest or weed control at 1000 g/ha [6]: 80%
- pest or weed control at 1000 g/ha [7, 8]: 90%
- pest or weed control at 1000 g/ha [7, 9]: 10%
- pest or weed control at 1000 g/ha [7, 10]: 90%
- pest or weed control at 1000 g/ha [7, 11]: 20%
- pest or weed control at 1000 g/ha [7, 12]: 60%
- pest or weed control at 1000 g/ha [7, 13]: 40%

Compound: O=C(O)C(F)(F)c1ccccc1OC(F)(F)F [Compound 1-465, 2,2-Difluoro-2-[2-(trifluoromethoxy)phenyl]acetic acid]
- pest or weed control at 1000 g/ha [1]: 20%
- plant injury at 1000 g/ha [2]: 20%
- pest or weed control at 1000 g/ha [3]: 20%
- pest or weed control at 1000 g/ha [4]: 70%
- pest or weed control at 1000 g/ha [5]: 20%
- pest or weed control at 1000 g/ha [6]: 70%
- pest or weed control at 1000 g/ha [7, 8]: 80%
- pest or weed control at 1000 g/ha [7, 9]: 20%
- pest or weed control at 1000 g/ha [7, 10]: 80%
- pest or weed control at 1000 g/ha [7, 11]: 60%
- pest or weed control at 1000 g/ha [7, 12]: 70%
- pest or weed control at 1000 g/ha [7, 13]: 30%

Compound: COc1cccc(C(F)(F)C(=O)O)c1F [Compound 1-190, 2,2-Difluoro-2-(2-fluoro-3-methoxy-phenyl)acetic acid]
- pest or weed control at 1000 g/ha [1]: 20%
- plant injury at 1000 g/ha [2]: 0%
- pest or weed control at 1000 g/ha [3]: 0%
- pest or weed control at 1000 g/ha [4]: 80%
- pest or weed control at 1000 g/ha [5]: 90%
- pest or weed control at 1000 g/ha [6]: 80%
- pest or weed control at 1000 g/ha [7, 8]: 80%
- pest or weed control at 1000 g/ha [7, 9]: 10%
- pest or weed control at 1000 g/ha [7, 10]: 90%
- pest or weed control at 1000 g/ha [7, 11]: 40%
- pest or weed control at 1000 g/ha [7, 12]: 60%
- pest or weed control at 1000 g/ha [7, 13]: 20%

Compound: O=C(O)C(F)(F)c1ccc(OC(F)(F)F)cc1Cl [Compound 1-59, 2-[2-Chloro-4-(trifluoromethoxy)phenyl]-2,2-difluoro-acetic acid]
- pest or weed control at 250 g/ha [1]: 10%
- plant injury at 250 g/ha [2]: 0%
- pest or weed control at 250 g/ha [3]: 0%
- pest or weed control at 250 g/ha [4]: 20%
- pest or weed control at 250 g/ha [5]: 10%
- pest or weed control at 250 g/ha [6]: 20%
- pest or weed control at 250 g/ha [7, 8]: 60%
- pest or weed control at 250 g/ha [7, 9]: 0%
- pest or weed control at 250 g/ha [7, 10]: 60%
- pest or weed control at 250 g/ha [7, 11]: 0%
- pest or weed control at 250 g/ha [7, 12]: 40%
- pest or weed control at 250 g/ha [7, 13]: 10%

Compound: O=C(O)C(F)(F)c1cccc(Cl)c1OC(F)F [Compound 1-452, 2-[3-Chloro-2-(difluoromethoxy)phenyl]-2,2-difluoro-acetic acid]
- pest or weed control at 1000 g/ha [1]: 30%
- plant injury at 1000 g/ha [2]: 30%
- pest or weed control at 1000 g/ha [3]: 10%
- pest or weed control at 1000 g/ha [4]: 50%
- pest or weed control at 1000 g/ha [5]: 70%
- pest or weed control at 1000 g/ha [6]: 50%
- pest or weed control at 1000 g/ha [7, 8]: 80%
- pest or weed control at 1000 g/ha [7, 9]: 40%
- pest or weed control at 1000 g/ha [7, 10]: 80%
- pest or weed control at 1000 g/ha [7, 11]: 50%
- pest or weed control at 1000 g/ha [7, 12]: 70%
- pest or weed control at 1000 g/ha [7, 13]: 50%

Compound: COc1c(F)ccc(C(F)(F)C(=O)O)c1F [Compound 1-458, 2-(2,4-Difluoro-3-methoxy-phenyl)-2,2-difluoro-acetic acid]
- pest or weed control at 1000 g/ha [1]: 0%
- plant injury at 1000 g/ha [2]: 20%
- pest or weed control at 1000 g/ha [3]: 0%
- pest or weed control at 1000 g/ha [4]: 90%
- pest or weed control at 1000 g/ha [5]: 80%
- pest or weed control at 1000 g/ha [6]: 90%
- pest or weed control at 1000 g/ha [7, 8]: 90%
- pest or weed control at 1000 g/ha [7, 9]: 40%
- pest or weed control at 1000 g/ha [7, 10]: 90%
- pest or weed control at 1000 g/ha [7, 11]: 90%
- pest or weed control at 1000 g/ha [7, 12]: 70%
- pest or weed control at 1000 g/ha [7, 13]: 90%

Compound: COc1c(C(F)(F)F)cccc1C(F)(F)C(=O)O [Compound 1-464, 2,2-Difluoro-2-[2-methoxy-3-(trifluoromethyl)phenyl]acetic acid]
- pest or weed control at 250 g/ha [1]: 30%
- plant injury at 250 g/ha [2]: 20%
- pest or weed control at 250 g/ha [3]: 10%
- pest or weed control at 250 g/ha [4]: 60%
- pest or weed control at 250 g/ha [5]: 50%
- pest or weed control at 250 g/ha [6]: 40%
- pest or weed control at 250 g/ha [7, 8]: 80%
- pest or weed control at 250 g/ha [7, 9]: 10%
- pest or weed control at 250 g/ha [7, 10]: 80%
- pest or weed control at 250 g/ha [7, 11]: 70%
- pest or weed control at 250 g/ha [7, 12]: 60%
- pest or weed control at 250 g/ha [7, 13]: 70%

Compound: COc1cccc(C(F)(F)C(=O)O)c1C [Compound 1-242, 2,2-Difluoro-2-(3-methoxy-2-methyl-phenyl)acetic acid]
- pest or weed control at 1000 g/ha [1]: 10%
- plant injury at 1000 g/ha [2]: 10%
- pest or weed control at 1000 g/ha [3]: 0%
- pest or weed control at 1000 g/ha [4]: 70%
- pest or weed control at 1000 g/ha [5]: 60%
- pest or weed control at 1000 g/ha [6]: 70%
- pest or weed control at 1000 g/ha [7, 8]: 80%
- pest or weed control at 1000 g/ha [7, 9]: 10%
- pest or weed control at 1000 g/ha [7, 10]: 80%
- pest or weed control at 1000 g/ha [7, 11]: 10%
- pest or weed control at 1000 g/ha [7, 12]: 70%
- pest or weed control at 1000 g/ha [7, 13]: 10%

Compound: O=C(O)C(F)(F)c1cccc(Cl)c1C1CC1 [Compound 1-428, 2-(3-Chloro-2-cyclopropyl-phenyl)-2,2-difluoro-acetic acid]
- pest or weed control at 1000 g/ha [1]: 0%
- plant injury at 1000 g/ha [2]: 0%
- pest or weed control at 1000 g/ha [3]: 0%
- pest or weed control at 1000 g/ha [4]: 90%
- pest or weed control at 1000 g/ha [5]: 80%
- pest or weed control at 1000 g/ha [6]: 80%
- pest or weed control at 1000 g/ha [7, 8]: 90%
- pest or weed control at 1000 g/ha [7, 9]: 10%
- pest or weed control at 1000 g/ha [7, 10]: 90%
- pest or weed control at 1000 g/ha [7, 11]: 10%
- pest or weed control at 1000 g/ha [7, 12]: 90%
- pest or weed control at 1000 g/ha [7, 13]: 0%

Compound: Cc1c(C#N)cccc1C(F)(F)C(=O)O [Compound 1-244, 2-(3-Cyano-2-methyl-phenyl)-2,2-difluoro-acetic acid]
- pest or weed control at 1000 g/ha [1]: 90%
- plant injury at 1000 g/ha [2]: 40%
- pest or weed control at 1000 g/ha [3]: 50%
- pest or weed control at 1000 g/ha [4]: 80%
- pest or weed control at 1000 g/ha [5]: 90%
- pest or weed control at 1000 g/ha [6]: 90%
- pest or weed control at 1000 g/ha [7, 8]: 90%
- pest or weed control at 1000 g/ha [7, 9]: 60%
- pest or weed control at 1000 g/ha [7, 10]: 90%
- pest or weed control at 1000 g/ha [7, 11]: 60%
- pest or weed control at 1000 g/ha [7, 12]: 70%
- pest or weed control at 1000 g/ha [7, 13]: 70%

Compound: N#Cc1c(F)cccc1C(F)(F)C(=O)O [Compound 1-261, 2-(2-Cyano-3-fluoro-phenyl)-2,2-difluoro-acetic acid]
- pest or weed control at 1000 g/ha [1]: 10%
- plant injury at 1000 g/ha [2]: 0%
- pest or weed control at 1000 g/ha [3]: 10%
- pest or weed control at 1000 g/ha [4]: 50%
- pest or weed control at 1000 g/ha [5]: 40%
- pest or weed control at 1000 g/ha [6]: 40%
- pest or weed control at 1000 g/ha [7, 8]: 70%
- pest or weed control at 1000 g/ha [7, 9]: 20%
- pest or weed control at 1000 g/ha [7, 10]: 70%
- pest or weed control at 1000 g/ha [7, 11]: 0%
- pest or weed control at 1000 g/ha [7, 12]: 40%
- pest or weed control at 1000 g/ha [7, 13]: 30%

Compound: N#Cc1cccc(C(F)(F)C(=O)O)c1F [Compound 1-192, 2-(3-Cyano-2-fluoro-phenyl)-2,2-difluoro-acetic acid]
- pest or weed control at 1000 g/ha [1]: 50%
- plant injury at 1000 g/ha [2]: 0%
- pest or weed control at 1000 g/ha [3]: 0%
- pest or weed control at 1000 g/ha [4]: 70%
- pest or weed control at 1000 g/ha [5]: 70%
- pest or weed control at 1000 g/ha [6]: 80%
- pest or weed control at 1000 g/ha [7, 8]: 80%
- pest or weed control at 1000 g/ha [7, 9]: 20%
- pest or weed control at 1000 g/ha [7, 10]: 80%
- pest or weed control at 1000 g/ha [7, 11]: 30%
- pest or weed control at 1000 g/ha [7, 12]: 70%
- pest or weed control at 1000 g/ha [7, 13]: 60%
